Data taken from the supplement of paper PMC10883282.

Assays:
Assay in all cases: relative viability vs DMSO control (72 h) (fraction); higher = more viable cells
RD-ES = test system: RD-ES
Procedure, shortened: (§1)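 A 5 µM positive control and 0.1% DMSO vehicle ran alongside sarcoma cell lines seeded in 384-well plates to reach 80–90% confluence. Serially diluted compound, 2.5 µl from source plates of 10 mM to 0.0002 mM, was added after 24 h, and the plates were held 72 h at 37 °C, 5% CO2. Relative viability was worked out from ATPLite readings as percent growth averaged over up to triplicate wells. The values were rescaled so that 1 is full and 0 is none.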

SW1353 = test system: SW1353
Procedure, shortened: as §1

HT1080 = test system: HT1080
Procedure, shortened: as §1

SW982 = test system: SW982
Procedure, shortened: as §1

KHOS-240S = test system: KHOS-240S
Procedure, shortened: as §1

CCOc1cc2ncc(C#N)c(Nc3ccc(OCc4ccccn4)c(Cl)c3)c2cc1NC(=O)/C=C/[C@H]1CCCN1C [Pyrotinib]
relative viability
Conditions | HT1080 | KHOS-240S | RD-ES | SW982 | SW1353
5.081 pM | 1.07 | 1.07 | 0.971 | 1 | 1.06
15.24 pM | 1.13 | 1.08 | 0.968 | 1.03 | 1.05
45.72 pM | 1.103 | 1.06 | 0.969 | 1.05 | 1.03
0.000137174 µM | 1.13 | 1.06 | 0.978 | 1.09 | 0.994
0.000411523 µM | 1.11 | 1.05 | 0.983 | 1.05 | 1.01
0.00123457 µM | 1.06 | 1.08 | 0.971 | 1.04 | 1.04
0.0037037 µM | 1.12 | 1.07 | 0.965 | 1.03 | 1.02
0.0111111 µM | 1.09 | 1.06 | 0.9672 | 1.03 | 1.02
0.0333333 µM | 1.078 | 1.09 | 0.953 | 1.03 | 0.947
0.1 µM | 1.07 | 1.08 | 0.955 | 1.02 | 0.889
0.3 µM | 1.08 | 1.05 | 0.95 | 0.952 | 0.791

C[C@@H]1COC(Nc2ccc3ncnc(Nc4ccc(OCc5nccs5)c(Cl)c4)c3c2)=N1 [Varlitinib]
relative viability
Conditions | HT1080 | KHOS-240S | RD-ES | SW982 | SW1353
0.00017 µM | 1.06 | 1.02 | 0.968 | 0.982 | 1.03
0.00051 µM | 1.03 | 1.03 | 1.01 | 1.01 | 0.981
0.00152 µM | 1.05 | 1.02 | 0.957 | 0.966 | 0.968
0.00457 µM | 1.05 | 1.05 | 0.985 | 0.974 | 1.04
0.01372 µM | 1.04 | 1.048 | 0.975 | 0.986 | 0.978
0.04115 µM | 1.06 | 1.05 | 0.991 | 0.993 | 1.01
0.1235 µM | 1 | 1.05 | 1 | 0.984 | 0.947
0.3704 µM | 1.01 | 0.996 | 0.948 | 0.932 | 0.886
1.111 µM | 1.02 | 0.9899 | 0.961 | 0.918 | 0.824
3.333 µM | 0.99 | 0.947 | 0.973 | 0.949 | 0.812
10 µM | 0.97 | 0.849 | 0.89 | 0.883 | 0.738

COc1cc2ncnc(Nc3ccc(F)c(Cl)c3)c2cc1NC(=O)/C=C/CN1CCCCC1 [Dacomitinib]
relative viability
Conditions | HT1080 | KHOS-240S | RD-ES | SW982 | SW1353
0.00017 µM | 1.12 | 1.08 | 1.02 | 1.05 | 1.06
0.00051 µM | 1.11 | 1.09 | 1.01 | 1.07 | 1.05
0.00152 µM | 1.11 | 1.09 | 1.01 | 1.08 | 1.02
0.00457 µM | 1.11 | 1.06 | 1.02 | 1.09 | 0.9671
0.01372 µM | 1.08 | 1.06 | 1.02 | 1.08 | 0.927
0.04115 µM | 1.12 | 1.06 | 1.01 | 1.08 | 0.884
0.1235 µM | 1.12 | 1.08 | 0.992 | 1.04 | 0.8331
0.3704 µM | 1.13 | 1.01 | 0.9359 | 0.986 | 0.764
1.111 µM | 1.15 | 0.936 | 0.832 | 0.606 | 0.665
3.333 µM | 0.769 | 0.579 | 0.474 | 0.21 | 0.401
10 µM | 0.0364 | 0.0145 | 0.0093 | 0.0159 | 0.0104

COc1cc2nccc(Oc3ccc(NC(=O)NC4CC4)c(Cl)c3)c2cc1C(N)=O [Lenvatinib]
relative viability
Conditions | HT1080 | KHOS-240S | RD-ES | SW982 | SW1353
0.00017 µM | 1.07 | 0.992 | 0.959 | 1 | 1.01
0.00051 µM | 1.06 | 1 | 0.98 | 0.993 | 0.999
0.00152 µM | 1.08 | 1.03 | 0.959 | 0.998 | 0.986
0.00457 µM | 1.05 | 1.01 | 0.961 | 0.9857 | 0.982
0.01372 µM | 1.08 | 0.977 | 0.923 | 0.989 | 0.931
0.04115 µM | 1.06 | 0.938 | 0.942 | 0.99 | 0.943
0.1235 µM | 1.06 | 0.913 | 0.875 | 0.982 | 0.902
0.3704 µM | 1.07 | 0.824 | 0.857 | 0.968 | 0.872
1.111 µM | 1.09 | 0.738 | 0.852 | 0.947 | 0.859
3.333 µM | 1.09 | 0.72 | 0.835 | 0.926 | 0.83
10 µM | 1.12 | 0.6606 | 0.815 | 0.8573 | 0.817

Cc1c(F)cc(C(=O)NC2CC2)cc1-c1ccc(C(=O)NCC(C)(C)C)cn1 [Losmapimod]
relative viability
Conditions | HT1080 | KHOS-240S | RD-ES | SW982 | SW1353
0.00017 µM | 1.09 | 1.07 | 1.01 | 1.059 | 1.06
0.00051 µM | 1.09 | 1.1 | 0.995 | 1.07 | 1.06
0.00152 µM | 1.12 | 1.07 | 1.02 | 1.09 | 1.08
0.00457 µM | 1.11 | 1.09 | 0.993 | 1.07 | 1.07
0.01372 µM | 1.1 | 1.04 | 0.998 | 1.07 | 1.09
0.04115 µM | 1.149 | 1.06 | 0.962 | 1.07 | 1.08
0.1235 µM | 1.16 | 1.02 | 0.947 | 1.06 | 1.08
0.3704 µM | 1.13 | 1 | 0.917 | 1.07 | 1.09
1.111 µM | 1.11 | 0.951 | 0.879 | 1.06 | 1.079
3.333 µM | 1.09 | 0.97 | 0.892 | 1.02 | 1.07
10 µM | 1.11 | 0.893 | 0.879 | 1 | 0.959

CCN(CCCOc1ccc2c(Nc3cc(CC(=O)Nc4cccc(F)c4)[nH]n3)ncnc2c1)CCOP(=O)(O)O [Barasertib]
relative viability
Conditions | HT1080 | KHOS-240S | RD-ES | SW982 | SW1353
0.00017 µM | 1.05 | 1.04 | 0.994 | 1.06 | 0.955
0.00051 µM | 1.04 | 1.02 | 0.974 | 1.03 | 0.972
0.00152 µM | 1.04 | 1.03 | 0.984 | 1.05 | 0.939
0.00457 µM | 1.04 | 1 | 0.951 | 1.05 | 0.985
0.01372 µM | 1.02 | 0.978 | 0.746 | 1 | 0.867
0.04115 µM | 0.977 | 0.9 | 0.156 | 0.713 | 0.841
0.1235 µM | 0.878 | 0.794 | 0.143 | 0.5551 | 0.842
0.3704 µM | 0.89 | 0.759 | 0.14 | 0.552 | 0.812
1.111 µM | 0.9017 | 0.744 | 0.131 | 0.589 | 0.823
3.333 µM | 0.895 | 0.736 | 0.117 | 0.525 | 0.82
10 µM | 0.87 | 0.712 | 0.127 | 0.468 | 0.8463

C[C@H]1Oc2cc(cnc2N)-c2c(nn(C)c2C#N)CN(C)C(=O)c2ccc(F)cc21 [Lorlatinib]
relative viability
Conditions | HT1080 | KHOS-240S | RD-ES | SW982 | SW1353
0.00017 µM | 1.09 | 1.06 | 0.973 | 1.012 | 1.04
0.00051 µM | 1.08 | 1.08 | 0.96 | 1.04 | 1.06
0.00152 µM | 1.09 | 1.07 | 0.972 | 1.02 | 1.027
0.00457 µM | 1.1 | 1.07 | 0.978 | 1.04 | 0.992
0.01372 µM | 1.08 | 1.06 | 0.969 | 1.03 | 0.985
0.04115 µM | 1.03 | 1.01 | 0.9601 | 1.03 | 1
0.1235 µM | 1.07 | 1.01 | 0.965 | 0.895 | 0.976
0.3704 µM | 1.09 | 1.01 | 0.891 | 0.826 | 0.889
1.111 µM | 1.03 | 0.969 | 0.861 | 0.762 | 0.851
3.333 µM | 1.09 | 0.915 | 0.74 | 0.768 | 0.839
10 µM | 1.05 | 0.865 | 0.499 | 0.64 | 0.792

CNC(=O)c1cc(Oc2ccc(NC(=O)Nc3ccc(Cl)c(C(F)(F)F)c3)cc2)ccn1 [Sorafenib]
relative viability
Conditions | HT1080 | KHOS-240S | RD-ES | SW982 | SW1353
0.00017 µM | 1.06 | 1.04 | 0.972 | 1.07 | 0.98
0.00051 µM | 1.06 | 1.07 | 0.98 | 1.06 | 1.02
0.00152 µM | 1.1 | 1.09 | 0.963 | 1.05 | 1.01
0.00457 µM | 1.08 | 1.08 | 0.992 | 1.07 | 1.01
0.01372 µM | 1.07 | 1.06 | 1 | 1.06 | 1.01
0.04115 µM | 1.07 | 1.08 | 0.987 | 1.07 | 1.01
0.1235 µM | 1.08 | 1.08 | 0.987 | 1.07 | 0.992
0.3704 µM | 1.12 | 1.11 | 0.992 | 1.07 | 1.02
1.111 µM | 1.102 | 1.05 | 0.994 | 1.06 | 1.04
3.333 µM | 0.94 | 0.728 | 0.903 | 0.992 | 0.85
10 µM | 0.0932 | 0.309 | 0.274 | 0.559 | 0.39
